Earlier results, collected in US20170367972A1, “Formulations and Methods of Treatment for Treating Nail Fungal Infections” (priority 2016, published 2017).

Tests used:
dermatophytes [1] = system: dermatophytes
dermatophytes [2] = system: dermatophytes; remark: listed apart in the source

For CN(C/C=C/C#CC(C)(C)C)Cc1cccc2ccccc12 [Terbinafine, terbinafine], the “activity against Candida albicans” value (Candida albicans) is given as “only fungistatic activity” and the activity against dermatophytes (dermatophytes [1]) is given as “fungicidal activity”.
In the case of COC1=CC(=O)C[C@@H](C)[C@]12Oc1c(Cl)c(OC)cc(OC)c1C2=O [griseofulvin], the “activity against nondermophytic molds” value (nondermophytic molds) is given as “no activity”, the “effectiveness in dermatophytic infections” value (dermatophytes [2]) is given as “effective only for dermatophytic infections” and the “activity against Candida spp.” value (Candida spp.) is given as “no activity”. For the same compound, the activity against dermatophytes (dermatophytes [1]) was “active in vitro against most dermatophytes”.
